In PubChem BioAssay (NCI):
Where “and” joins values, the source holds several entries; their conditions need not be identical. Equal values may be shown once.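 In this assay, cells in 96-well plates receive the compound at five concentrations for 48 hours. Endpoints are linearly interpolated between the surrounding concentrations. The concentration for 50% growth inhibition is given as GI50. TGI denotes the concentration required for complete inhibition of growth.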

Tests used:
Assay in all cases: growth of human tumour cells (NCI), 48 h
[1] = test system: ACHN renal
[2] = test system: MALME-3M melanoma
[3] = test system: SNB-78 CNS
[4] = test system: RPMI-8226 leukemia
[5] = test system: CCRF-CEM leukemia
[6] = test system: HL-60(TB) leukemia
[7] = test system: BT-549 breast
[8] = test system: NCI-H460 lung
[9] = test system: HS 578T breast
[10] = test system: MDA-N

Row | Structure (SMILES) | TGI [1] | TGI [2] | TGI [3] | TGI [4] | TGI [5] | TGI [6] | GI50 [1] | GI50 [7] | TGI [7] | GI50 [4] | GI50 [5] | GI50 [8] | TGI [8] | GI50 [6] | GI50 [9] | TGI [9] | GI50 [10] | TGI [10] | GI50 [2]
1 | CC(=O)NNc1nc(C)c(C(=O)NNC(=O)C(=O)Nc2ccc(Cl)cc2Cl)s1 | 87.9 µM | > 100 µM | > 100 µM | > 100 µM | 56.2 µM | 99.2 µM |  |  |  |  |  |  |  |  |  |  |  |  | 
2 | CCCCCCCCCCCCCC[C@@H](O)[C@H]1CC[C@H]([C@H]2CC[C@H]([C@H](O)CCCCCC[C@@H](O)CC3=C[C@H](C)OC3=O)O2)O1 |  | > 25 µM |  | > 25 µM | > 25 µM | 7.14 µM and > 25 µM | 1.02 µM | 1.88 µM | 4.86 µM and > 25 µM | 2.16 µM | 2.06 µM | 0.0214 µM | 4.26 µM and > 25 µM | > 25 µM | > 25 µM | 3.15 µM and > 25 µM | > 25 µM | 6.48 µM and > 25 µM | 
3 | CN1C(=O)C2(c3ccccc31)N(c1ccc(Cl)cc1)C(=O)C2(c1ccccc1)c1ccccc1 (stereo not drawn) | > 100 µM | > 100 µM |  | > 100 µM | > 100 µM | 16.5 µM | 78.4 µM | > 100 µM | > 100 µM | 6.25 µM | 9.72 µM | 52.2 µM | > 100 µM | 3.42 µM | 21.4 µM | > 100 µM |  |  | 50.8 µM
4 | COC(=O)[C@H]1CCCN1C(=O)[C@H]1CCCN1C(=O)[C@H](Cc1c[nH]c2ccccc12)NC(=S)Nc1cc(C(F)(F)F)cc(C(F)(F)F)c1 | > 100 µM | > 100 µM |  | > 100 µM | > 100 µM | 57.2 µM | 4.12 µM | 8.74 µM | 46 µM | 5.24 µM | 7.23 µM | 3.46 µM | > 100 µM | 4.19 µM | 6.1 µM | > 100 µM |  |  | 14.9 µM
5 | Cc1cc(Cl)nc(N(CCCNc2ccnc3cc(Cl)ccc23)Cc2ccco2)n1 | 12 µM | 5.58 µM |  | 3.19 µM | 8.93 µM | 5.14 µM | 3 µM | 2.16 µM | 6.47 µM | 1.04 µM | 2.32 µM | 2.04 µM | 6.2 µM | 2.05 µM | 2.13 µM | 8.1 µM |  |  | 2.21 µM
6 | COc1ccc(N(C)c2nc(N)nc3sc4c(c23)CCCC4)cc1 | 14.6 µM | 18.9 µM |  | 15.6 µM | 55.5 µM | 0.0101 µM | < 0.01 µM | 0.0123 µM | 10.5 µM | < 0.01 µM | < 0.01 µM | < 0.01 µM | 4.19 µM | < 0.01 µM | < 0.01 µM | 10.3 µM |  |  | < 0.0125 µM
7 | COc1cc2cc(Oc3ccc(NC(=O)Nc4ccc(Cl)c(Cl)c4)cc3)c(C)nc2cc1OC | 12.1 µM | 7.72 µM |  | 5.73 µM | 14 µM | 6.75 µM | 3 µM | 2.4 µM | 11.7 µM | 1.62 µM | 2.38 µM | 2.46 µM | 10.1 µM | 2.76 µM | 3.54 µM | 9.68 µM |  |  | 3.02 µM
8 | CSc1ccc2c(c1)C(N1CCN(C)CC1)Cc1ccccc1S2 (stereo not drawn) | 12.2 µM and 3.95 µM | 4.28 µM and 3.41 µM |  | 4.12 µM and 4.58 µM | 0.845 µM and 3.84 µM | 10.7 µM and 3.81 µM | 1.96 µM | 2.84 µM | 17.6 µM and 9.3 µM |  | 1.7 µM | 1.74 µM | 7.12 µM and 3.45 µM | 1.94 µM | 2.51 µM | 15.9 µM and 10.9 µM |  | 12.1 µM | 
9 | CN1CSC(=S)N(Cc2ccccc2)C1 | 27.1 µM | 37.4 µM |  | 79.7 µM | > 100 µM | 97.3 µM | 14.1 µM | 17.1 µM | 70.1 µM | 5.54 µM | 18 µM | 15.3 µM | 36.8 µM | 4.03 µM | 11.4 µM | 45.7 µM |  |  | 15.4 µM
10 | N#CC1c2ccccc2C=CN1C(=O)N(c1ccccc1)c1ccccc1 (stereo not drawn) | 3.3 µM | 3.55 µM |  | 6.87 µM | 8.99 µM | 6.24 µM | 1.79 µM | 8.68 µM | 21.2 µM | 2.56 µM | 2.97 µM | 15.9 µM | 34.2 µM | 2.11 µM | 3.14 µM | 13.7 µM |  |  | 1.61 µM
11 | CCn1c(-c2nonc2N)nc2cncc(C(=O)N3CC[C@H](N)C3)c21 | > 25 µM | > 25 µM |  | > 25 µM | > 25 µM | > 25 µM | > 25 µM | 3.92 µM | > 25 µM | > 25 µM | 15.2 µM | 17.7 µM | > 25 µM | > 25 µM | 0.559 µM | > 25 µM |  |  | > 25 µM
12 | O=C(CC(Cl)=C(Cl)Cl)c1cccc(Cl)c1Cl | > 100 µM | > 100 µM |  | > 100 µM | > 100 µM | > 100 µM | 47.7 µM | 70.6 µM | > 100 µM | 82.7 µM | 46.6 µM | > 100 µM | > 100 µM | 64.8 µM | > 100 µM | > 100 µM |  |  | > 100 µM
13 | CN(CC(=O)N(Cc1ccc(C2CCCCC2)cc1)c1ccc(C(=O)O)cc1)S(=O)(=O)c1c(F)c(F)c(F)c(F)c1F | 3.15 µM | 3.64 µM |  | 7.4 µM | 6.81 µM | 4.48 µM | 1.74 µM | 2.23 µM | 4.36 µM | 2.85 µM | 2.69 µM | 3.33 µM | 10.4 µM | 2.08 µM | 2.47 µM | 6.04 µM |  |  | 1.7 µM
14 | Cn1ncc(Cl)c1-c1cc(C(=O)N[C@H](CN)Cc2ccc(F)c(F)c2)oc1Cl | 14.2 µM and > 10 µM | 1.61 µM and 2.59 µM |  | 7.96 µM and > 7.98 µM | 11.8 µM and > 10 µM | 9.62 µM and 6.76 µM | 2.23 µM and 1.86 µM | 0.511 µM and 0.412 µM | 3.71 µM and 3.02 µM | 2.05 µM and 2.62 µM | 0.197 µM and 0.196 µM | 0.152 µM and 0.163 µM | 13 µM and > 10 µM | 2.9 µM and 2.05 µM | 0.0905 µM and 0.126 µM | 2.08 µM and 2.86 µM |  |  | 0.36 µM and 0.687 µM
